ChEMBL document CHEMBL1201862, “PubChem BioAssay data set” (2004)
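Test compounds were applied to cells in 96-well plates for 48 hours at 5 doses. GI50 marks 50% less growth.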 Active and inactive are the calls of the source. No stated cut-off is given here; in the data, active = GI50 up to about 1.1 µM and inactive = higher.

Assays:
Assay in all cases: NCI tumour cell line growth inhibition, 48 h
SNB-75 = test system: SNB-75
NCI-H460 = test system: NCI-H460
M14 = test system: M14
SK-OV-3 = test system: SK-OV-3
SF-539 = test system: SF-539
HT-29 = test system: HT-29
SW-620 = test system: SW-620
RPMI-8226 = test system: RPMI-8226
OVCAR-5 = test system: OVCAR-5
SN12C = test system: SN12C
HCT-116 = test system: HCT-116
A549 = test system: A549
U-251 = test system: U-251
SK-MEL-5 = test system: SK-MEL-5

Measured: GI50

N#CCCN(CCC#N)c1ccc(/C=C(/NC(=O)c2cc([N+](=O)[O-])ccc2Cl)C(=O)N=[N+]=[N-])cc1
inactive: SNB-75 > 100 µM | NCI-H460 > 100 µM | M14 > 100 µM | SK-OV-3 > 100 µM | SF-539 > 100 µM | HT-29 > 100 µM | SW-620 > 100 µM | RPMI-8226 > 100 µM | OVCAR-5 > 100 µM | SN12C > 100 µM | HCT-116 > 100 µM | A549 > 100 µM | U-251 > 100 µM | SK-MEL-5 > 100 µM

O=C1C2C(C(=O)N1c1ccccc1)C1(Br)c3ccccc3C2(Br)C2C(=O)N(c3ccccc3)C(=O)C21 (stereo not drawn)
inactive: SNB-75 13 µM | NCI-H460 > 31.6 µM | M14 > 31.6 µM | SK-OV-3 > 100 µM | SF-539 27.2 µM | HT-29 27.8 µM | SW-620 > 31.6 µM | RPMI-8226 10.6 µM | OVCAR-5 > 31.6 µM | SN12C > 31.6 µM | HCT-116 28.3 µM | A549 28.1 µM | U-251 > 31.6 µM | SK-MEL-5 > 31.6 µM

CC(C)N(C(C)C)P(OCCC#N)OC1CC(n2cnc3c(=O)[nH]cnc32)OC1COC(=O)NCCCCCCNC(=O)OC(C)(C)c1ccc(-c2ccccc2)cc1 (stereo not drawn)
inactive: SNB-75 24.3 µM | NCI-H460 22.9 µM | M14 18.4 µM | SK-OV-3 39.4 µM | SF-539 24 µM | HT-29 43.2 µM | SW-620 34.1 µM | RPMI-8226 25.7 µM | OVCAR-5 > 100 µM | SN12C 23.7 µM | HCT-116 39.1 µM | A549 39.4 µM | U-251 21.7 µM | SK-MEL-5 24.8 µM

CNC(N)NC
inactive: SNB-75 > 100 µM | NCI-H460 > 100 µM | M14 > 100 µM | SK-OV-3 > 100 µM | SF-539 > 100 µM | HT-29 > 100 µM | SW-620 > 100 µM | RPMI-8226 > 100 µM | OVCAR-5 > 100 µM | SN12C > 100 µM | HCT-116 > 100 µM | A549 > 100 µM | U-251 > 100 µM | SK-MEL-5 > 100 µM

CSc1ccc2c(cc1=O)C(NC(=O)c1ccccc1)CCc1cc(O)c(O)c(O)c1-2 (stereo not drawn)
inactive: SNB-75 2.91 µM | NCI-H460 19 µM | M14 15.6 µM | SK-OV-3 5.71 µM | SF-539 3.15 µM | HT-29 32.3 µM | SW-620 15.7 µM | RPMI-8226 19.1 µM | OVCAR-5 > 100 µM | SN12C 18.4 µM | HCT-116 18.5 µM | A549 30.5 µM | U-251 6.37 µM | SK-MEL-5 2.61 µM

COc1cc2c(cc1OC)C(O)[C@H](Br)C(C)(C)O2 (stereo partly drawn)
inactive: SNB-75 84.3 µM | NCI-H460 > 100 µM | M14 > 100 µM | SK-OV-3 > 100 µM | SF-539 > 100 µM | HT-29 > 100 µM | SW-620 > 100 µM | RPMI-8226 > 100 µM | OVCAR-5 > 100 µM | SN12C > 100 µM | HCT-116 > 100 µM | A549 > 100 µM | U-251 > 100 µM | SK-MEL-5 > 100 µM

Cn1cnnc1Sc1c([N+](=O)[O-])ncn1C
inactive: SNB-75 > 100 µM | NCI-H460 > 100 µM | M14 > 100 µM | SK-OV-3 > 100 µM | SF-539 > 100 µM | HT-29 > 100 µM | SW-620 72.4 µM | RPMI-8226 40.5 µM | OVCAR-5 > 100 µM | SN12C > 100 µM | HCT-116 > 100 µM | A549 > 100 µM | U-251 > 100 µM | SK-MEL-5 > 100 µM
